Assay results as given in US11632973B2, “Composition comprising taste modulation compounds, their use and foodstuff comprising them” (V. MANE FILS, priority 2015, dated 2023).
Entries after “also recorded” stand apart in the source; their conditions may differ.

Assays:
Format in all cases: in vivo
[1] = test system: panelists; assay: Various lactams added to cheese sauce, saltiness evaluation (Deviation from Reference); conditions: for perception of creaminess / perception of saltiness: cheese sauce comprising the compound, compared to the control; for Test Effects Taster 1 / Test Effects Taster 2 / Test Effects Taster 3 / Test Effects Taster 4: cheese sauce plus 5 ppm compound, compared with cheese sauce alone
Procedure: Epsilon-caprolactam, 2-piperidone, and N-methylcaprolactam were added to cheese sauce.
All cheese sauce samples were served at 21° C. Samples were stirred by hand prior to portioning to ensure even distribution of components. Approximately 9 ml of cheese sauce was served into odorless, translucent, one-ounce cups labeled with three-digit codes and capped with a lid. The samples were portioned out approximately 45 minutes prior to evaluation.
Panelists evaluated all samples in fully enclosed partitioned booths under white lights. Fizz NETWORK Software Acquisitions Biosystemes 2.47B was used for data collection. Each panelist was provided with filtered water for rinsing and instructed to follow a strict rinsing procedure. The rinsing protocol required panelists to rinse prior to tasting the first sample, and after tasting each sample.
Samples were evaluated using a Deviation from Reference (DFR) method. Panelists were given an identified reference labeled “000” and a coded sample simultaneously. The coded sample was either a blind, coded reference or a coded test sample. The panelists were instructed to taste the reference (000) first and mentally evaluate its SALTINESS intensity. Panelists were then instructed to taste and rate the coded sample's intensity for SALTINESS compared to the identified reference. Sample sets were given to the panelists in balanced, randomized order. A one-minute wait period was enforced between sample sets to reduce flavour carryover.
Panelists rated SALTINESS intensity difference from the reference using a 9-pt scale anchored with the following descriptors: (−4) Extremely less than Reference, (0) Same as Reference, (4) Extremely more than Reference. Number values were NOT shown on the scale. Statistical mean differences were calculated using one-way ANOVA using Fizz Calculations Biosystemes 2.47B. A significance level of p≤0.05 was set for statistical tests. Compared to the control the perceptions of saltiness and creaminess in the cheese sauce comprising epsilon-caprolactam, 2-piperidone, and N-methylcaprolactam is increased.

[2] = test system: expert tasters; assay: Effect on sweetness perception of Rebaudioside-A in water; conditions: for Taster Observations Taster 1 / Taster Observations Taster 2 / Taster Observations Taster 3 / Taster Observations Taster 4: Reb-A 250 ppm in water, TMC level 5 ppm; for bitter interference: Rebaudioside-A at 250 ppm, 5 ppm compound; for perception of sweetness: products with high intensity sweetener, four expert tasters, vs control
Procedure: The taste perception of the products containing the high intensity sweeteners without epsilon-caprolactam or 2-piperidone (Control) is compared with the same product (Test) containing epsilon-caprolactam or 2-piperidone. […] When a tasting solution is dosed with Rebaudioside-A at 250 ppm, with either epsilon-caprolactam or 2-piperidone at each 5 ppm, “bitter interference” and brightens pure sweetness are reduced.

[3] = test system: expert tasters; assay: as above
[4] = Reb-A 25 ppm in water, TMC level 5 ppm

Row | Structure (SMILES) | perception of creaminess [1] | perception of saltiness [1] | Test Effects Taster 1 [1] | Test Effects Taster 2 [1] | Test Effects Taster 3 [1] | Test Effects Taster 4 [1] | Taster Observations Taster 1 [2] | Taster Observations Taster 2 [2] | Taster Observations Taster 3 [2] | Taster Observations Taster 4 [2] | bitter interference [2] | perception of sweetness [2] | Taster Observations Taster 1 [3, 4] | Taster Observations Taster 2 [3, 4] | Taster Observations Taster 4 [3, 4] | Taster Observations Taster 3 [3, 4] | sweetness ([3]; Rebaudioside-A at 25 ppm, 5 ppm compound)
1 | O=C1CCCCCN1 [epsilon-caprolactam] | increased | increased | Slightly bitter; also recorded: Increased saltiness | Sweeter with less linger | Cleaner; also recorded: Less lingering; also recorded: Sweeter upfront | Cleaner; also recorded: Less lingering; also recorded: Sweeter upfront | sweeter, less; also recorded: lingering,; also recorded: slightly bitter | less linger | sweeter; also recorded: cleaner,; also recorded: less lingering | sweeter upfront,; also recorded: cleaner,; also recorded: less lingering | reduced | purified and amplified | sweet,; also recorded: slightly bitter | dirty,; also recorded: unclean | slightly higher; also recorded: sweet | – | –
2 | CN1CCCCCC1=O [N-methylcaprolactam] | increased | increased | Slight increase in saltiness | Unclean; also recorded: Slightly bitter | Bitter; also recorded: Increased saltiness | Least effective of three | – | – | – | – | – | – | – | – | – | – | –
3 | O=C1CCCCN1 [2-piperidone] | increased | increased | Delayed saltier; also recorded: More dairy impact | Increased saltiness; also recorded: Increased creaminess | Saltier; also recorded: Creamier | Clean sweet; also recorded: Stronger sweet | clean sweet,; also recorded: control | clean sweet,; also recorded: no lingering | clean sweet,; also recorded: no bitter,; also recorded: not linger | clean sweet,; also recorded: stronger sweet | reduced | purified and amplified | sweeter,; also recorded: clean | clean sweet,; also recorded: no bitter | best - sweetest,; also recorded: clean | no bitter | purified and amplified
